Assay results taken from ChEMBL document CHEMBL5143585, “Discovery and characterization of benzyloxy piperidine based dopamine 4 receptor antagonists” (Bioorg Med Chem Lett, 2022).

Tests used:
[1] = Protein binding in mouse plasma assessed as unbound fraction; type: ADME, cell-free
D(3) dopamine receptor [2] = molecular target: T1, D(3) dopamine receptor (Homo sapiens, UniProt P35462); assay: Displacement of [3H]N-methylspiperone from human D3 receptor expressed in HEK293 cell membrane by competitive inhibition based analysis; type: cell membranes
D(4) dopamine receptor = molecular target: T2, D(4) dopamine receptor (Homo sapiens, UniProt P21917); assay: Displacement of [3H]N-methylspiperone from human D4 receptor expressed in HEK293 cell membrane by competitive inhibition based analysis; type: cell membranes
T2 sequence (P21917 whole entry): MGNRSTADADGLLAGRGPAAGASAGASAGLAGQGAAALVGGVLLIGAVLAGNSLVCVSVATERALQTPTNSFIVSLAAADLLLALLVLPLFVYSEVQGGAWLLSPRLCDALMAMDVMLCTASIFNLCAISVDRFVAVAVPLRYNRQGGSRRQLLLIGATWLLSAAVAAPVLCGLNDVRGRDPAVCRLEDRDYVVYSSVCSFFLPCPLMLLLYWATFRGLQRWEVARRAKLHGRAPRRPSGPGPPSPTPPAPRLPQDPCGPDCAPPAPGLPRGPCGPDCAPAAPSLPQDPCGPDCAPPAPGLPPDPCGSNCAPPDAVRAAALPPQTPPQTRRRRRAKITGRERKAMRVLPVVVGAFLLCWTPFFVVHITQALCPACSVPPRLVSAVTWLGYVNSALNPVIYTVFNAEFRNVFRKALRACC

D(3) dopamine receptor [3] = molecular target: T1, D(3) dopamine receptor; assay: Displacement of [3H]N-methylspiperone from human D3 receptor expressed in HEK293 cell membrane at 10 uM by competitive inhibition based analysis; type: cell membranes
[4] = Protein binding in human plasma assessed as unbound fraction; type: ADME, cell-free
D(1B) dopamine receptor [5] = molecular target: T3, D(1B) dopamine receptor (Homo sapiens, UniProt P21918); assay: Displacement of [3H]-SCH23390 from human D5 receptor expressed in HEK293 cell membrane at 10 uM by competitive inhibition based analysis; type: cell membranes
[6] = molecular target: D(2) dopamine receptor (Homo sapiens) (UniProt P14416); assay: Displacement of [3H]N-methylspiperone from human D2 receptor expressed in HEK293 cell membrane at 10 uM by competitive inhibition based analysis; type: cell membranes
D(1A) dopamine receptor [7] = molecular target: T4, D(1A) dopamine receptor (Homo sapiens, UniProt P21728); assay: Displacement of [3H]-SCH23390 from human D1 receptor expressed in HEK293 cell membrane at 10 uM by competitive inhibition based analysis; type: cell membranes
[8] = molecular target: T5, D(4) dopamine receptor (Homo sapiens) (UniProt P21917); assay: Displacement of [3H]N-methylspiperone from human D4 receptor expressed in HEK293 cell membrane at 10 uM by competitive inhibition based analysis; type: cell membranes
T5 sequence (whole entry): T2 sequence (P21917 whole entry)

D(1B) dopamine receptor [9] = molecular target: T3, D(1B) dopamine receptor; assay: Displacement of [3H]-SCH23390 from human D5 receptor expressed in HEK293 cell membrane by competitive inhibition based analysis; type: cell membranes
[10] = Ratio of drug level in rat brain to plasma at 0.25 mg/kg, iv measured on day 2 at 0.25 hrs post-dose; type: ADME, organism-based; conditions: time 2 day, read-out: BPR
[11] = Plasma concentration in rat at 0.25 mg/kg, iv measured on day 2 at 0.25 hrs post-dose; type: ADME, organism-based; conditions: time 2 day
[12] = Half-life in rat at 0.25 mg/kg, iv measured for 24 hrs; type: ADME, organism-based; conditions: in vivo
[13] = Initial plasma concentration in rat at 0.25 mg/kg, iv; type: ADME, organism-based
[14] = Drug uptake in rat brain at 0.25 mg/kg, iv measured on day 2 at 0.25 hrs post-dose; type: ADME, organism-based; conditions: time 2 day, read-out: Drug uptake
[15] = AUC in rat at 0.25 mg/kg, iv measured for 24 hrs; type: ADME, organism-based; design: time 24 hrs, dose 0.25 mg/kg, route iv; conditions: in vivo
[16] = Volume of distribution at steady state in rat at 0.25 mg/kg, iv measured for 24 hrs; type: ADME, organism-based; conditions: in vivo
D(1A) dopamine receptor [17] = molecular target: T4, D(1A) dopamine receptor; assay: Displacement of [3H]-SCH23390 from human D1 receptor expressed in HEK293 cell membrane by competitive inhibition based analysis; type: cell membranes
[18] = Stability of the compound in mouse plasma; type: ADME, cell-free
[19] = Intrinsic clearance in human liver microsomes; type: ADME, Microsome; conditions: read-out: CLH

T3 sequence (P21918 whole entry): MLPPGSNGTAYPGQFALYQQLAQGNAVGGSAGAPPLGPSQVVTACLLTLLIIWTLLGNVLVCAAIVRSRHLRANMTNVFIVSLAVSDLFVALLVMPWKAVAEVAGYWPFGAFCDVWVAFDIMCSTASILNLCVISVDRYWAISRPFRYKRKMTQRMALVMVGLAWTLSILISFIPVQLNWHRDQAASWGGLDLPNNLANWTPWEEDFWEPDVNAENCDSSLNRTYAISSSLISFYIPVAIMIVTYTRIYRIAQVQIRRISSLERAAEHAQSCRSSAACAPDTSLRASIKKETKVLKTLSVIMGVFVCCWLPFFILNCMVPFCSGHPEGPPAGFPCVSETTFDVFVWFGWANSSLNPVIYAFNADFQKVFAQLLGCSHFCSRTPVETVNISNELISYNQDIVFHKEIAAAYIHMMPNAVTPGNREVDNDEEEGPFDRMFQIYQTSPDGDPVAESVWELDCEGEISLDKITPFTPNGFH
T4 sequence (P21728 whole entry): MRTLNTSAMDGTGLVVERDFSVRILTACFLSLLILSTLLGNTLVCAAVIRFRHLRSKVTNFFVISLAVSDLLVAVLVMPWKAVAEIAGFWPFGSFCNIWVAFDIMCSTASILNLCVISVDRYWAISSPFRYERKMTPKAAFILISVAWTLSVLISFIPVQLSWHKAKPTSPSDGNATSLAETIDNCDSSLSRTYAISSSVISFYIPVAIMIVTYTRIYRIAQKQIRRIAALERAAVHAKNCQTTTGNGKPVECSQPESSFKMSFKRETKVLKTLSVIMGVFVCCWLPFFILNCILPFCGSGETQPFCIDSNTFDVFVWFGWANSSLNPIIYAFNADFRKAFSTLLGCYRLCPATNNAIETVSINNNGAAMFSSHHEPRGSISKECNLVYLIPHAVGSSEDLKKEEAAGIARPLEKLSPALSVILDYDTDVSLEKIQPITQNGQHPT
T1 sequence (P35462 whole entry): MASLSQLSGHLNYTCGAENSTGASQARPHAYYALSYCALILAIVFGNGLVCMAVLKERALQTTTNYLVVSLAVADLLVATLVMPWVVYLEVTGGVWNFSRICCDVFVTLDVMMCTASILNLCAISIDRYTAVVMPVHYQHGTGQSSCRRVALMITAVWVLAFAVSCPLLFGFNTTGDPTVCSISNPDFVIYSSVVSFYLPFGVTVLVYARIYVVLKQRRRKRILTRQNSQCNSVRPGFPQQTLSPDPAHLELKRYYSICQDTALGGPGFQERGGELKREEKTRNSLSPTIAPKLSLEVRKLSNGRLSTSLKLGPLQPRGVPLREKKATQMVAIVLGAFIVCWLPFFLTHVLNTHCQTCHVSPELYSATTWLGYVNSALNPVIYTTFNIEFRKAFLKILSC
Chain of D(2) dopamine receptor (Homo sapiens) (P14416 whole entry): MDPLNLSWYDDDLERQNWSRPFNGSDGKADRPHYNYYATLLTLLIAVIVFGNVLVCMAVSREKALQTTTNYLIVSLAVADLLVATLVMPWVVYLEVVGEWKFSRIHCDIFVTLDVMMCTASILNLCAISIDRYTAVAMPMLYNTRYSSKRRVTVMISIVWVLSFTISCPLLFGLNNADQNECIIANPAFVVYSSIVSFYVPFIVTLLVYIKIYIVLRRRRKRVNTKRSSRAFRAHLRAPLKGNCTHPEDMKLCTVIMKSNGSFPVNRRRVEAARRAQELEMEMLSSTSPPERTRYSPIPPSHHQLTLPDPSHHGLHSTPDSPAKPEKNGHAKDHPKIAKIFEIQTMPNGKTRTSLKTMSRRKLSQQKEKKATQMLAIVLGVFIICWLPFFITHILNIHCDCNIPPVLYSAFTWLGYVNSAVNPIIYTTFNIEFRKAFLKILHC

SMILES | Fu [1] | Ki (D(3) dopamine receptor [2]) | IC50 (D(4) dopamine receptor) | Ki (D(4) dopamine receptor) | inhibition (D(3) dopamine receptor [3]; filed as antagonist) | Fu [4] | inhibition (D(1B) dopamine receptor [5]) | inhibition [6] | inhibition (D(1A) dopamine receptor [7]) | inhibition (D(3) dopamine receptor [3]) | Kp at 48 h [10] | concentration at 48 h [11] | t1/2 [12] | C0 ([13]; in vivo, iv, 0.25 mg/kg) | concentration at 48 h [14] | AUC [15] | Vdss [16] | other results
Cn1ncc2cc(CN3CCC(OCc4cccc(C(F)(F)F)c4)CC3)ccc21 | 5.7% | 923 nM | 200 nM | 200 nM | 92% | 1% | < 50% | < 50% | < 50% | – | – | – | – | – | – | – | – | –
Cc1cc(CO[C@H]2CCCN(c3ccc(Cl)cc3)C2)ccc1F | – | – | – | – | – | – | – | < 50% | < 50% | < 50% | – | – | – | – | – | – | – | inhibition [8]: 4.7%; Ki (D(1B) dopamine receptor [9]): > 10000 nM; inhibition (D(1B) dopamine receptor [5]; filed as antagonist): 66%
Cc1c(Cl)cccc1NC(=O)CN1CCC(OCc2cccc(C(F)(F)F)c2)CC1 | – | 2120 nM | 1150 nM | 1160 nM | 84% | – | < 50% | < 50% | < 50% | – | – | – | – | – | – | – | – | –
FC(F)(F)c1cccc(COC2CCN(Cc3ccc4[nH]cnc4c3)CC2)c1 | 16.1% | 948 nM | 1820 nM | 1800 nM | 83% | 2.5% | < 50% | < 50% | < 50% | – | – | – | – | – | – | – | – | –
Fc1cccc(CO[C@H]2CCCN(c3ccc(Cl)cc3)C2)c1 | – | > 10000 nM | – | – | 71% | – | < 50% | < 50% | < 50% | – | – | – | – | – | – | – | – | inhibition [8]: -10%
Fc1ccc(COC2CCN(Cc3cn4ccccc4n3)CC2)cc1F | 42.8% | – | 339 nM | 337 nM | – | 6.2% | < 50% | < 50% | < 50% | < 50% | 6.6 | 34.9 ng/mL | 0.9 h | 49.4 ng/mL | 232 ng/g | 142 ng·h/mL | 6.4 L/kg | –
FC(F)(F)c1cccc(COC2CCN(Cc3cc4ccc(Cl)cc4[nH]3)CC2)c1 | 0.1% | – | 209 nM | 211 nM | – | 0.1% | < 50% | < 50% | – | < 50% | – | – | – | – | – | – | – | Ki (D(1A) dopamine receptor [17]): 1190 nM; inhibition (D(1A) dopamine receptor [7]; filed as antagonist): 55%
Cn1cnc2cc(CN3CCC(OCc4cccc(C(F)(F)F)c4)CC3)ccc21 | 5.7% | – | 646 nM | 640 nM | – | 1% | – | – | – | – | 7.2 | 30.1 ng/mL | 1.1 h | 60.2 ng/mL | 214 ng/g | 149 ng·h/mL | 6.3 L/kg | –
Cc1c(Cl)cccc1NC(=O)CN1CCC(OCc2ccc(F)c(F)c2)CC1 | 1.5% | 2460 nM | 302 nM | 299 nM | 67% | 0.3% | < 50% | < 50% | < 50% | – | 2.9 | 45.8 ng/mL | 4.4 h | 5.5 ng/mL | 134 ng/g | 747 ng·h/mL | 5.5 L/kg | –
Fc1cc(COC2CCN(Cc3cn4ccccc4n3)CC2)ccc1Cl | 22.4% | – | 135 nM | 134 nM | – | 1.8% | – | < 50% | < 50% | < 50% | 15.5 | 29.9 ng/mL | 0.6 h | 52.2 ng/mL | 453 ng/g | 125 ng·h/mL | 5.1 L/kg | Ki (D(1B) dopamine receptor [9]): > 10000 nM; inhibition (D(1B) dopamine receptor [5]; filed as antagonist): 57%
Cc1cc(NC(=O)CN2CCC(OCc3ccc(F)c(F)c3)CC2)ccc1F | – | – | 120 nM | 121 nM | – | 0.5% | < 50% | < 50% | < 50% | < 50% | – | – | – | – | – | – | – | Stability [18]: Unstable
Fc1cc(COC2CCN(Cc3cc4ccc(Cl)cc4[nH]3)CC2)ccc1Cl | – | 557 nM | 324 nM | 323 nM | 76% | – | – | < 50% | < 50% | – | – | – | – | – | – | – | – | inhibition (D(1B) dopamine receptor [5]; filed as antagonist): 65%
Fc1ccc(COC2CCN(Cc3cc4ccc(Cl)cc4[nH]3)CC2)cc1F | 0.4% | 965 nM | 148 nM | 149 nM | 73% | < 0.3% | – | < 50% | < 50% | – | 28.9 | 19.4 ng/mL | 1.8 h | – | 562 ng/g | 126 ng·h/mL | – | C0 ([13]; plasma, read-out: C0): 12.6 ng/mL; Ki (D(1B) dopamine receptor [9]): 3990 nM; inhibition (D(1B) dopamine receptor [5]; filed as antagonist): 64%
COc1ccc(CN2CCO[C@H](COc3ccccc3)C2)cc1F | 3.7% | – | 5.01 nM | 5.8 nM | – | – | – | < 50% | – | – | – | – | – | – | – | – | – | CLint scaled [19]: 71.9 mL/min/kg
Fc1ccc(COC2CCN(Cc3ccc4[nH]cnc4c3)CC2)cc1F | 40.1% | 4080 nM | 4270 nM | 4280 nM | 57% | 22.9% | < 50% | < 50% | < 50% | – | 16.1 | 7 ng/mL | 1.2 h | – | 112 ng/g | 65.6 ng·h/mL | 19.2 L/kg | –
Cn1ncc2cc(CN3CCC(OCc4ccc(F)c(F)c4)CC3)ccc21 | 16.6% | – | 275 nM | 276 nM | – | 3.6% | < 50% | < 50% | < 50% | < 50% | 11.6 | 30.6 ng/mL | 1.4 h | 32.5 ng/mL | 355 ng/g | 112 ng·h/mL | 12.9 L/kg | –
Cc1nc(CN2CCC(OCc3cccc(C(F)(F)F)c3)CC2)c2ccccn12 | 3.6% | 896 nM | 302 nM | 309 nM | – | 5.2% | < 50% | < 50% | < 50% | < 50% | – | – | – | – | – | – | – | –
Fc1cc(COC2CCN(Cc3ccc4[nH]cnc4c3)CC2)ccc1Cl | 17.1% | – | 1510 nM | 1520 nM | – | 7.7% | < 50% | < 50% | < 50% | < 50% | 9.9 | 14.1 ng/mL | 1.1 h | 23.5 ng/mL | 139 ng/g | 79.9 ng·h/mL | 13.6 L/kg | –
Cc1c(Cl)cccc1NC(=O)CN1CCC(OCc2ccc(Cl)c(F)c2)CC1 | – | 2360 nM | 437 nM | 441 nM | 76.2% | – | < 50% | < 50% | < 50% | – | – | – | – | – | – | – | – | –
